Test results reported in patent US20230293535A1, “ERBB/BTK INHIBITORS” (Dizal (Jiangsu) Pharmaceutical Co., Ltd., priority 2018, published 2023).
Read-outs that look alike come from different tables or passages of the source.

Experiments:
Assay type in all cases: cell-based
TMD-8 cells = assay: BTK (wt) cell proliferation, TMD-8 (CellTiter-Glo, 72 h); conditions: Homo sapiens, TMD8, 72 h, read-out: BTK WT TMD-8 GI50;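 note: viable cells quantified by ATP-based luminescence, proliferation expressed as percent of DMSO control after subtracting a time-zero baseline plate read at dosing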
Ba/F3 EGFR NPH ins cells = assay: Cell proliferation, Ba/F3 EGFR NPH ins (CellTiter-Glo, 72 h); conditions: Ba/F3 EGFR, 72 h;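 note: IL3-independent cells carrying constitutively phosphorylated EGFR, compound dilution series, viable cells quantified by ATP luminescence, growth relative to DMSO wells after subtracting pre-dosing (day 0) baseline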
[1] = tested on: Her2 exon 20 insertion YVMA transduced NIH-3T3 cell line; assay: Cell proliferation, Her2 YVMAins NIH-3T3 (CellTiter-Glo, 72 h); conditions: Mus musculus, NIH3T3, 72 h;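 note: viable cells quantified by ATP luminescence, growth over a day-zero baseline plate expressed as percent of DMSO control growth, compound dilution series in 10% FBS medium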
WT EGFR cell line A-431 = assay: Cell proliferation, WT EGFR A431 (CellTiter-Glo, 72 h); conditions: Homo sapiens, A-431, 72 h;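 note: proliferation from a luminescent ATP viability signal, expressed as 100 × (treated minus time-zero plate) over (DMSO control minus time-zero plate), cells grown with 10% FBS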
[2] = tested on: NCI-H1975 EGFR L858R/T790M cells; assay: Cell proliferation, NCI-H1975 EGFR L858R/T790M (CellTiter-Glo, 72 h); conditions: Homo sapiens, NCI-H1975, 72 h;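 note: viable cells quantified by luciferase-based ATP luminescence, proliferation expressed relative to DMSO-treated wells (100%) after subtracting a parallel plate read at the time of dosing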
DB cells = assay: BTK (wt) cell proliferation, DB (CellTiter-Glo, 72 h); conditions: Homo sapiens, DB, read-out: Non-BCR activated DB GI50;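 note: DB cells in 384-well plates given a dilution series of compound, viable cells read by ATP luminescence, growth expressed versus DMSO control after subtracting a time-zero plate reading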
Ri-1 cells = assay: BTK (wt) cell proliferation, Ri-1 (CellTiter-Glo, 72 h); conditions: Ri-1, 72 h, read-out: BTK WT Ri-1 GI50;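 note: viable cells quantified as cellular ATP luminescence, proliferation normalized to a time-zero plate and the DMSO control, compounds tested across a dilution series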
OCI-LY-10 cells = assay: BTK (wt) cell proliferation, OCI-LY-10 (CellTiter-Glo, 72 h); conditions: Homo sapiens, OCI-Ly10, 72 h, read-out: BTK WT OCI-LY-10 GI50;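 note: viable cells quantified via cellular ATP luminescence, proliferation given as percent of DMSO control after subtracting a duplicate plate read at time of dosing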
Ba/F3 EGFR ASV ins cells = assay: Cell proliferation, Ba/F3 EGFR ASV ins (CellTiter-Glo, 72 h); conditions: Ba/F3 EGFR, 72 h;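 note: IL3-independent Ba/F3 cells transduced with EGFR V769_D770insASV, cellular ATP luminescence after compound exposure, growth relative to DMSO control with the day-0 baseline reading subtracted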
[3] = molecular target: T1, human Her2 exon 20 insertion mutation YVMA (Homo sapiens, UniProt P04626, INS775YVMA); assay: Her2 Exon 20 YVMA insertion cellular phosphorylation inhibition (MSD p-Her2 Y1248/total Her2); conditions: Her2 YVMAins cells, 4 h compound;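 note: lentivirally transduced NIH-3T3 cells in 1% FBS medium, electrochemiluminescent MSD read-out, graded compound concentrations at 37 °C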
T1 construct: expressed in transfected cells; host or cells: NIH-3T3, lentiviral transduction, puromycin selection
T1 sequence (P04626 with tags, fused parts or gaps INS775YVMA): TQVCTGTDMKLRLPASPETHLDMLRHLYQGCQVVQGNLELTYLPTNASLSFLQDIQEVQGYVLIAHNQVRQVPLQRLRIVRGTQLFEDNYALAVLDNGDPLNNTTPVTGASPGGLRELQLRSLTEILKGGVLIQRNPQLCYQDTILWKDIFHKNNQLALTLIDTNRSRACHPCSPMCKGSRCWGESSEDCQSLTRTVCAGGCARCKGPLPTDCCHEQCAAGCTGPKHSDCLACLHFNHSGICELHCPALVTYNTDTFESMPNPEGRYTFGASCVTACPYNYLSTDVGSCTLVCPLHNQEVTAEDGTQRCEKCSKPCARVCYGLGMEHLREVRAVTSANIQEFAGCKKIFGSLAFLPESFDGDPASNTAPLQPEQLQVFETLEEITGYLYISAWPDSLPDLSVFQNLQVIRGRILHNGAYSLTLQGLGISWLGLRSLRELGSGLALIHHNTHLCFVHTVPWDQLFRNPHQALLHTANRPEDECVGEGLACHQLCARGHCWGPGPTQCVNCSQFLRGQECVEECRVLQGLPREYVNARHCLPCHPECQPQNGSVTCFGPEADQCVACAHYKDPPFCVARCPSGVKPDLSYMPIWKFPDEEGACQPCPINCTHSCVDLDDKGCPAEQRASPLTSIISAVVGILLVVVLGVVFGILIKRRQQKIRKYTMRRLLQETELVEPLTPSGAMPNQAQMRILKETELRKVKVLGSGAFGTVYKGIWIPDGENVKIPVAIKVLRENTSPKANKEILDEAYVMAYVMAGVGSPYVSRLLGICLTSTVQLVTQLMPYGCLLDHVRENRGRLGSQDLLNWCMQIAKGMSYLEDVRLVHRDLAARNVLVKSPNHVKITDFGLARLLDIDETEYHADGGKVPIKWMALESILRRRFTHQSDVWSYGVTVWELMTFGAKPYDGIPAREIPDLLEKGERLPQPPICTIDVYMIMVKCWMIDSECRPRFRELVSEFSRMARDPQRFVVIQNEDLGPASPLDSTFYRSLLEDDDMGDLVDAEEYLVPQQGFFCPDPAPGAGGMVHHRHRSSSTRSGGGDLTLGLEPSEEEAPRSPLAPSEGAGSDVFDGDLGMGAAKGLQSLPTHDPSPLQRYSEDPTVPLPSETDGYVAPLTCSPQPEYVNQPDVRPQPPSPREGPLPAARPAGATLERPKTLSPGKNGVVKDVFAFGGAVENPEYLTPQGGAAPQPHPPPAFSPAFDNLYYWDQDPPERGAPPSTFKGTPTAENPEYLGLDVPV

[4] = molecular target: T2, human EGFR exon 20 V769_D770insASV (Homo sapiens, UniProt P00533, INS769ASV); assay: EGFR Exon20 ASV insertion cellular phosphorylation inhibition (MSD pEGFR Y1068/total EGFR); conditions: Ba/F3 EGFR ASV ins cells, 4 h compound, p-EGFR(Y1068)/total EGFR;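 note: electrochemiluminescent readout on an MSD SECTOR Imager, IL3-independent transduced cells in medium with 1% FBS, compound concentration series at 37 °C and 5% CO2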
T2 construct: expressed in transfected cells; host or cells: Ba/F3 (DSMZ ACC-300), lentiviral transduction, puromycin selection, IL3 depletion
T2 sequence (P00533 with tags, fused parts or gaps INS769ASV): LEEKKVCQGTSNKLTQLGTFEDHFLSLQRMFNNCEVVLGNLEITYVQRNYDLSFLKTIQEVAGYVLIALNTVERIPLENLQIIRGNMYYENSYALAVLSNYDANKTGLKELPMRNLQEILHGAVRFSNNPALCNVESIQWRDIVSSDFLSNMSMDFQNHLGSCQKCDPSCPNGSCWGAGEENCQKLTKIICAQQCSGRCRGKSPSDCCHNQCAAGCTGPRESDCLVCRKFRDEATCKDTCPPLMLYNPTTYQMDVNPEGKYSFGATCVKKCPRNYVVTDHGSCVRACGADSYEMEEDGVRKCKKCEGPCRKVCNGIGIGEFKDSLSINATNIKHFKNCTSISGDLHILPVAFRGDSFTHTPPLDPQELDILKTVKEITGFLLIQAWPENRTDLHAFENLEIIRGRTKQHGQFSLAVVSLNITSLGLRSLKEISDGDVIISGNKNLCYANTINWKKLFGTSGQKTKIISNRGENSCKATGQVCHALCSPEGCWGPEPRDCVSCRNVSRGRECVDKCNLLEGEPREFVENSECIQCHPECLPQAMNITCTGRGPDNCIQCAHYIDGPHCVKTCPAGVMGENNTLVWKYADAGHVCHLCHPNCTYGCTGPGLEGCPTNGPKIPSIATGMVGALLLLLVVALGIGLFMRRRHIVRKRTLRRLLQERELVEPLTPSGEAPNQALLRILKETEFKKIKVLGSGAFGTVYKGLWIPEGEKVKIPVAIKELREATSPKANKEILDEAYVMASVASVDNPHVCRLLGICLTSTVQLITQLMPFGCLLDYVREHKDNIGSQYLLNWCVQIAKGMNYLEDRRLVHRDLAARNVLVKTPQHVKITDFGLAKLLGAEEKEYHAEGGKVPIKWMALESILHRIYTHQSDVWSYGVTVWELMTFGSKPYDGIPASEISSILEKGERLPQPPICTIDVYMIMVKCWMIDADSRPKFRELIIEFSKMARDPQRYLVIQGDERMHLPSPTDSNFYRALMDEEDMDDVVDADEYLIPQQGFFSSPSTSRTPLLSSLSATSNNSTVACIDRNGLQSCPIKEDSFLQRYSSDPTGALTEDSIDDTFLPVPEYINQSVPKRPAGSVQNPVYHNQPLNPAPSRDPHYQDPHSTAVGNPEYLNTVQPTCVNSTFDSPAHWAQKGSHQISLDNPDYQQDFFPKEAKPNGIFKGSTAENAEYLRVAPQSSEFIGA

[5] = molecular target: T3, human EGFR exon 20 H773_V774insNPH (Homo sapiens, UniProt P00533, INS773NPH); assay: EGFR Exon20 NPH insertion cellular phosphorylation inhibition (MSD pEGFR Y1068/total EGFR); conditions: Ba/F3 EGFR NPH ins cells, 4 h compound, p-EGFR(Y1068)/total EGFR;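 note: IL3-independent Ba/F3 cells with constitutively phosphorylated EGFR, compound exposure at 37 °C under 5% CO2, electrochemiluminescent MSD measurement of the p-EGFR to total EGFR ratio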
T3 construct: host or cells: Ba/F3
T3 sequence (P00533 with tags, fused parts or gaps INS773NPH): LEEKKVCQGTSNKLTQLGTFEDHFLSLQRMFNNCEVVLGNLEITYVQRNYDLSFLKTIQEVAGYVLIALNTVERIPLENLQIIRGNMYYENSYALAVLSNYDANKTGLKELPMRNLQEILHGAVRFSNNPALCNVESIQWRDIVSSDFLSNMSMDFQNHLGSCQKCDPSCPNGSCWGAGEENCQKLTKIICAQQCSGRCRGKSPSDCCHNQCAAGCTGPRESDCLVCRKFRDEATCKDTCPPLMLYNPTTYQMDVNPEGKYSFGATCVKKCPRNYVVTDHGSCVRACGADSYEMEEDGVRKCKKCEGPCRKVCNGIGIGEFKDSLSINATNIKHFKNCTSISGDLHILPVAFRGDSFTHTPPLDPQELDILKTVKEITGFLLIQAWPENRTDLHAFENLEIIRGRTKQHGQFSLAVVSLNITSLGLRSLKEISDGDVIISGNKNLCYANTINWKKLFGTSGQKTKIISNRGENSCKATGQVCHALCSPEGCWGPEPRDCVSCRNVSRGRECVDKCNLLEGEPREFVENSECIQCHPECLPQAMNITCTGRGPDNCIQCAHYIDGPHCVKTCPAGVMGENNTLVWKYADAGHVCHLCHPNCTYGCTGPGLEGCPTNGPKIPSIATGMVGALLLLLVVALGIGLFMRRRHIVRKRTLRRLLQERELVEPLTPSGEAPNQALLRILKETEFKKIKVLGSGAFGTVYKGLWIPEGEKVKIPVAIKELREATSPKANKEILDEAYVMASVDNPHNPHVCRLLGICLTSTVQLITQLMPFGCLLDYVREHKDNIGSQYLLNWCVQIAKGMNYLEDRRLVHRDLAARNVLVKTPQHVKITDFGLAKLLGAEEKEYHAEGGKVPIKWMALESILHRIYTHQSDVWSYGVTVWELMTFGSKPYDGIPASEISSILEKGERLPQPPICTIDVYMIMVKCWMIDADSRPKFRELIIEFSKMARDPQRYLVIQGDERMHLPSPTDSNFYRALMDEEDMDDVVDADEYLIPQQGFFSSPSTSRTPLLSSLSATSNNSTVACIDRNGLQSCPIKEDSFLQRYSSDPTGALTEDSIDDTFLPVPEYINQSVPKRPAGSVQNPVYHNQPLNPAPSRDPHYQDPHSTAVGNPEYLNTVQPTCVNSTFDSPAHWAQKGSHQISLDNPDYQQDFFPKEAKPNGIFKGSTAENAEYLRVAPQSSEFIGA

EGFR L858R&T790M = molecular target: T4, EGFR L858R&T790M (Homo sapiens, UniProt P00533, L858R/T790M); assay: EGFR L858R and T790M cellular phosphorylation inhibition in NCI-H1975 (MSD); conditions: NCI-H1975 cells, 4 h compound, p-EGFR(Y1068)/total EGFR; read-out: EGFR L858R and T790M mutation IC50;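 note: phosphorylated and total EGFR detected by electrochemiluminescence, cells exposed to compound in medium containing 1% FBS at 37 °C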
T4 construct: host or cells: NCI-H1975
T4 sequence (P00533 25-1210 T790M/L858R): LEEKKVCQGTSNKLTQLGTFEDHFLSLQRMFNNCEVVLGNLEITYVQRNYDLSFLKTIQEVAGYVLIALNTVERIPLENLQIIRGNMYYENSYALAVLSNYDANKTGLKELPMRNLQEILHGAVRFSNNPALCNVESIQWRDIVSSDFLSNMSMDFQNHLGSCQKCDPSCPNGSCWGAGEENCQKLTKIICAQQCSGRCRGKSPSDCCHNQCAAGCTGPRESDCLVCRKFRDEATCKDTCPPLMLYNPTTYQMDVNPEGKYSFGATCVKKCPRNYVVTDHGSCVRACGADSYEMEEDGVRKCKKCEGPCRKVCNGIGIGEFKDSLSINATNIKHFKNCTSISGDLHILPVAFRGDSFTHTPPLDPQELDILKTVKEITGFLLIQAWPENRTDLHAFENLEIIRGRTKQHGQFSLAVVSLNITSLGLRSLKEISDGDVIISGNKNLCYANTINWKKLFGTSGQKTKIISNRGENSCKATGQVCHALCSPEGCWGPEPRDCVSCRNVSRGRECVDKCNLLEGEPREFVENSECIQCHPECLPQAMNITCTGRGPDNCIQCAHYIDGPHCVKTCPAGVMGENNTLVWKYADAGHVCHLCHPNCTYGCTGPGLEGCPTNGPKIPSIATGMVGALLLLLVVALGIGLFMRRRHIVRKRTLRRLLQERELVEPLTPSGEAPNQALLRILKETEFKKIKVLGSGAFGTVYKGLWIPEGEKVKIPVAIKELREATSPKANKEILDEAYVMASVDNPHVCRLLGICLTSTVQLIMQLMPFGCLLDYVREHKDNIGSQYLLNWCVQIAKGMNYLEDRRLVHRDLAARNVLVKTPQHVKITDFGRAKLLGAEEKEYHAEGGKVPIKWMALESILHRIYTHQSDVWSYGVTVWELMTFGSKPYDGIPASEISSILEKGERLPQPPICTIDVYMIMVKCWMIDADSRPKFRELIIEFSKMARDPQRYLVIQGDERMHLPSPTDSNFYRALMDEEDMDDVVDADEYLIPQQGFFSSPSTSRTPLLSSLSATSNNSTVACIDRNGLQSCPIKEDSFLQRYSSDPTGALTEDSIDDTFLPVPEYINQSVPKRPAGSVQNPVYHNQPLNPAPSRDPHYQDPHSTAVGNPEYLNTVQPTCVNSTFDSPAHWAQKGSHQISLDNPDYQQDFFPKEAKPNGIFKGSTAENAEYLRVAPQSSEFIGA

[6] = TMD-8 cells, 72 h, CellTiter-Glo
[7] = Ba/F3 EGFR NPH ins, 72 h proliferation, read-out: EGFR Exon20 NPH insertion GI50
[8] = Her2 YVMAins cells, 72 h proliferation, read-out: Her2 Exon 20 YVMA insertion GI50
[9] = A431, 72 h proliferation, read-out: EGFR WT A431 GI50
[10] = NCI-H1975, 72 h proliferation, read-out: EGFR L858R and T790M mutation GI50
[11] = Ri-1 cells, 72 h, CellTiter-Glo
[12] = OCI-LY-10 cells, 72 h, CellTiter-Glo
[13] = Ba/F3 EGFR ASV ins, 72 h proliferation, read-out: EGFR Exon20 ASV insertion GI50

SMILES	GI50 (TMD-8 cells; [6])	GI50 (Ba/F3 EGFR NPH ins cells; [7])	GI50 [1, 8]	GI50 (WT EGFR cell line A-431; [9])	GI50 [2, 10]	GI50 (DB cells; DB cells, CellTiter-Glo)	GI50 (Ri-1 cells; [11])	IC50 [3]	GI50 (OCI-LY-10 cells; [12])	GI50 (Ba/F3 EGFR ASV ins cells; [13])	IC50 [4]	IC50 [5]	further results
C=CC(=O)Nc1cc(Nc2nccc(-c3cn(C)c4ccccc34)n2)c(OC)cc1N(C)CCN(C)C [AZD9291, osimertinib, reference compound]													GI50 (TMD-8 cells): 1090 nM; GI50 (Ba/F3 EGFR NPH ins cells; read-out: EGFR Exon20 NPH insertion GI50 (nM)): 177 nM; GI50 ([1]; read-out: Her2 Exon 20 YVMA insertion GI50 (nM)): 294 nM; GI50 (WT EGFR cell line A-431; read-out: EGFR WT A431 GI50 (nM)): 43.7 nM; GI50 ([2]; read-out: EGFR L858R and T790M mutation GI50 (nM)): 14.5 nM; GI50 (DB cells): 1020 nM; GI50 (Ri-1 cells): 2050 nM; GI50 (OCI-LY-10 cells): 1040 nM; GI50 (Ba/F3 EGFR ASV ins cells; read-out: EGFR Exon20 ASV insertion GI50 (nM)): 207 nM
C=CC(=O)N1CCC(Oc2cc3c(Nc4ccc(Cl)c(Cl)c4F)ncnc3cc2OC)CC1 [Poziotinib, reference compound]	2410 nM	7.2 nM	4.7 nM	0.5 nM	19.4 nM	> 3000 nM	1230 nM	0.8 nM	1000 nM	4.1 nM			
C=CC(=O)Nc1cc(Nc2ncnc(Nc3ccc(C)nc3C(C)(C)O)n2)c(OC)cc1N(C)CCN(C)C [Compound 7, N-(2-((2-(dimethylamino)ethyl)(methyl)amino)-5-(4-(2-(2-hydroxypropan-2-yl)-6-methylpyridin-3-ylamino)-1,3,5-triazin-2-ylamino)-4-methoxyphenyl) acrylamide]	188 nM	212 nM	161 nM	37.9 nM	25 nM	> 3000 nM	> 3000 nM	19.7 nM	130 nM	145 nM	40.5 nM	46.6 nM	
C=CC(=O)Nc1cc(Nc2ncnc(Nc3cnc(C)cc3C(C)(C)O)n2)c(OC)cc1N(C)CCN(C)C [Compound 6, N-(2-((2-(dimethylamino)ethyl)(methyl)amino)-5-(4-(4-(2-hydroxypropan-2-yl)-6-methylpyridin-3-ylamino)-1,3,5-triazin-2-ylamino)-4-methoxyphenyl) acrylamide]	335 nM	625 nM	534 nM	64.7 nM	93.7 nM	> 3000 nM	289 nM	97.3 nM	210 nM	250 nM	191 nM	381 nM	
C=CC(=O)Nc1cc(Nc2ncc(OC)c(Nc3cc(Cl)c(F)cc3C(C)(C)O)n2)c(OC)cc1N(C)CCN(C)C [Compound 81, N-(5-(4-(5-chloro-4-fluoro-2-(2-hydroxypropan-2-yl)phenylamino)-5-methoxypyrimidin-2-ylamino)-2-((2-(dimethylamino)ethyl)(methyl)amino)-4-methoxyphenyl)acrylamide]		136 nM	354 nM	35.7 nM	4.6 nM			303 nM		149 nM		81.5 nM	IC50 (EGFR L858R&T790M): 1.1 nM
C=CC(=O)Nc1cc(Nc2ncnc(Nc3ccccc3C3(O)COC3)n2)c(OC)cc1N(C)CCN(C)C [Compound 10, N-(2-((2-(dimethylamino)ethyl)(methyl)amino)-5-(4-(2-(3-hydroxyoxetan-3-yl)phenylamino)-1,3,5-triazin-2-ylamino)-4-methoxyphenyl)acrylamide]	> 3000 nM	189 nM	274 nM	79.4 nM	76.3 nM	> 3000 nM	> 3000 nM	231 nM	> 3000 nM	198 nM	73.4 nM	119 nM	
Cc1cc(C(=O)Nc2nc3cccc(Cl)c3n2[C@@H]2CCCCN(C(=O)/C=C/CN(C)C)C2)ccn1 [EGF816, reference compound]	166 nM	491 nM	242 nM	265 nM	42.5 nM	> 3000 nM	897 nM	116 nM	235 nM	502 nM			
